Results reported in patent publication US20060204980A1, “Colorectal cancer therapies” (priority 2004, published 2006).

What was measured:
Type in all cases: cell-based
[1] = system: p53^+/+ HCT116 cells; experiment: Multiparametric flow cytometry of caspase-3/7 (DEVDase) activity and cell viability, p53+/+ HCT116; details: TDZD 20 μM, 48 hours; for caspase-dependent apoptosis (DEVDase activity and plasma membrane integrity): p53+/+ HCT116, LiCl 30 mM
Method: (§1) The functional consequences of GSK3β inhibition were explored. Source and maintenance of p53^+/+ and p53^−/− HCT116 colorectal carcinoma cells were as described in Example 2. […] Alternatively, cells were incubated with GSK3β inhibitors LiCl (30 mM) or TDZD (20 μM), harvested after 48 hours and analyzed for cell viability (propidium iodide, red channel) and active caspase-3/7 activity (green channel, […]®, from Chemicon International Inc., Temecula, Calif.), by multiparametric flow cytometry as reported previously in Kim et al., Lancet, 362:205-209 (2003).
(§2) To clarify the role of GSK3β inhibition in p53-dependent apoptosis, HCT116 cells were treated with TDZD or LiCl and monitored changes in cell death. […] See the two center column panels of FIG. 6C. […] See right hand column panels of FIG. 6C.

[2] = system: p53^+/+ HCT116 colorectal carcinoma cells; experiment: Western blotting of p53 pathway proteins in treated p53+/+ HCT116 cells; details: for survivin expression (Western blot) / p53 expression (Western blot) / p21^Waf1/Cip1 expression (Western blot): p53+/+ HCT116; for p53 expression (Western blot) / p21^Waf1/Cip1 expression (Western blot): 6-24 hours
Method: (§3) Cells were collected and centrifuged at 3,000 rpm for 5 minutes at 4° C., and washed in PBS (pH 7.2). The cell pellet was solubilized in lysis buffer (20 mM Tris, pH 7.2, 0.5% deoxycholate, 1% Triton X-100, 0.1% SDS, 150 mM NaCl, 1 mM EDTA) containing proteases inhibitors (Complete, Roche Applied Science) for 30 min at 4° C. The lysate was cleared by centrifugation for 15 minutes, and protein concentration was evaluated using a Bio-Rad protein assay system (Bio-Rad Laboratories, Hercules, Calif.). Samples (30 μg) were separated by SDS-polyacrylamide gel, transferred to nylon membranes (Millipore), and incubated with primary antibodies to p53 (Oncogene Research Products, FL-393, Santa Cruz Biotechnology, Inc., Santa Cruz, Calif.), p21^Waf1/Cip1 (Oncogene Research Products), XIAP (BD Transduction Laboratories), survivin (NOVUS Biologicals, Littleton, Colo.), MDM2 (Santa Cruz Biotechnology, Inc.), p14^ARF (NOVUS Biologicals), caspase-3 (Cell Signaling Technology), cleaved caspase-3 (Cell Signaling Technology), β-catenin (BD Transduction Laboratories), cyclin B1 (GNS1, Santa Cruz Biotechnology, Inc.), GSK3β (Santa Cruz Biotechnology, Inc.), or β-sactin (Sigma) with detection of reactive bands by chemiluminescence (Amersham). Cells were analyzed for hypodiploid DNA content by propidium iodide staining and flow cytometry as described in O'Connor et al., Cancer Cell, 2:43-54 (2002). Chemicals whose source is not explicitly listed were or can be obtained from Sigma.
To explore the link between GSK3β inhibition and p53 modulation, in vivo, HCT116 cells were treated with Li, TDZD or SB216763, and analyzed cells by Western blotting. p53^+/+ or p53^−/− HCT116 cells were incubated with the following GSK3β inhibitors, LiCl (Sigma, 30 mM), thiadiazolidinone-8 (TDZD) (Calbiochem, 0-20 μM), or SB216763 (Sigma, 20 μM), cells were harvested after 6-24 hours, and samples were analyzed by Western blotting as described in Example 2. […]

[3] = biological target: GSK3β (Homo sapiens, UniProt P49841); experiment: Immunoprecipitation and GSK3β kinase assay using glycogen synthase-derived peptide substrate, from treated HCT116 cells; parameters: harvested after 6 or 12 hours, and immunoprecipitated with an antibody to GSK3β; endogenous in cells; host or cells: HCT116 (p53+/+) colorectal carcinoma cells; details: p53+/+ HCT116 cells; Purvalanol A 10 μM, LiCl 30 mM, TDZD 20 μM; 6 or 12 hours
GSK3β, sequence (P49841 whole entry): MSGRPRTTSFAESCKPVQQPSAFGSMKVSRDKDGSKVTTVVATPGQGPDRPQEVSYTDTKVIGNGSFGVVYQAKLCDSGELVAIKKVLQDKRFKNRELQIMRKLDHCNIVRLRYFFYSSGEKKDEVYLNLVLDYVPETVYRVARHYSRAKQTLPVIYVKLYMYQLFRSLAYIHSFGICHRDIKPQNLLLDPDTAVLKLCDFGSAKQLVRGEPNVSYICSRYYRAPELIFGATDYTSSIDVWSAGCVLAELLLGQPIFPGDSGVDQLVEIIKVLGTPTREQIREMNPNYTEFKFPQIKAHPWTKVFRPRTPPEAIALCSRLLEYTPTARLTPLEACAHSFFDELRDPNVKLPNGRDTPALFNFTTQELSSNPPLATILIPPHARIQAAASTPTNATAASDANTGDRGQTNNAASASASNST
Method: Immune complexes were mixed with a synthetic peptide containing a GSK3β phosphorylation site derived from the sequence of glycogen synthase (Upstate Biotechnology) in the presence of 10 μCi of γ-^32P-ATP (Amersham Corp., Piscataway, N.J.), after 30 min incubation at 30° C., the reaction mixtures were centrifuged briefly, and 15 μl of the supernatant was spotted onto P81 phosphocellulose paper (Whatman Inc., Clifton, N.J.). The membrane was washed three times with 175 mM phosphoric acid, rinsed once in acetone, and dried. Changes in peptide phosphorylation under the various conditions tested were determined by scintillation counting. Data were analyzed using the unpaired t test on a Graphpad Prism software package for Windows (Graphpad Inc., San Diego, Calif.). A P value of 0.05 was considered as statistically significant.

[4] = system: p53^−/− HCT116 cells; experiment: Multiparametric flow cytometry of caspase-3/7 (DEVDase) activity and cell viability, p53-/- HCT116; details: TDZD 20 μM, 48 hours; for apoptosis induction (DEVDase activity and plasma membrane integrity): p53-/- HCT116, LiCl 30 mM
Method: as §1, §2

[5] = system: p53^−/− HCT116 colorectal carcinoma cells; experiment: Western blotting of p53 pathway proteins in treated p53-/- HCT116 cells
Method: as §3
To explore the link between GSK3β inhibition and p53 modulation, in vivo, HCT116 cells were treated with Li, TDZD or SB216763, and analyzed cells by Western blotting. p53^+/+ or p53^−/− HCT116 cells were incubated with the following GSK3β inhibitors, LiCl (Sigma, 30 mM), thiadiazolidinone-8 (TDZD) (Calbiochem, 0-20 μM), or SB216763 (Sigma, 20 μM), cells were harvested after 6-24 hours, and samples were analyzed by Western blotting as described in Example 2.

| Compound | caspase-dependent apoptosis (DEVDase activity and plasma membrane integrity) [1] | survivin expression (Western blot) [2] | p53 expression (Western blot) [2] | GSK3β kinase activity (peptide phosphorylation) [3] | apoptosis induction (DEVDase activity and plasma membrane integrity) [4] | p21^Waf1/Cip1 expression (Western blot) [2] | increase in fraction of apoptotic cells ([1]; p53+/+ cultures) | MDM2 expression (Western blot) ([2]; HCT116 cells) | p14^ARF expression (Western blot) ([2]; HCT116 cells, relative to vehicle) | survivin expression (Western blot) [5] | increase in fraction of apoptotic cells ([4]; p53-/- cells) |
| --- | --- | --- | --- | --- | --- | --- | --- | --- | --- | --- | --- |
| [Cl-].[Li+] [LiCl, lithium chloride] | reproduced caspase-dependent apoptosis | time-dependent downregulation of survivin | elevation of p53 levels only at 24 hours after treatment | suppressed GSK3β activity | considerably less effective at inducing apoptosis |  |  |  |  |  |  |
| Cn1cc(C2=C(c3ccc(Cl)cc3Cl)C(=O)NC2=O)c2ccccc21 [SB216763] |  |  | strong induction of p53 |  |  | prominent upregulation |  |  |  |  |  |
| Cn1sc(=O)n(Cc2ccccc2)c1=O [TDZD, 4-Benzyl-2-methyl-1,2,4-thiadiazolidine-3,5-dione] | reproduced caspase-dependent apoptosis | time-dependent downregulation of survivin | strong induction of p53 | suppressed GSK3β activity | considerably less effective at inducing apoptosis | prominent upregulation | ~4.5 fold | reduced expression | upregulation of p14^ARF | no changes in survivin expression | 1.7 fold |
| O=C1Cc2c([nH]c3ccc([N+](=O)[O-])cc23)-c2ccccc2N1 [alsterpaullone] |  |  | elevation of p53 levels |  |  |  |  |  |  |  |  |
